Reference: patent US6995184B2, “3-arylindole derivatives and their use as CB2 receptor agonists” (Sanofi-Aventis, priority 2000, dated 2006)

Target: T1, cannabinoid receptors present in the mouse spleen (Mus musculus, UniProt P47936)
T1 construct: from tissue; host or cells: mouse spleen
Experiment: In vivo affinity for cannabinoid receptors in mouse spleen after oral administration
Description: The tests were carried out according to the experimental conditions described by Rinaldi-Carmona et al., J. Pharmacol. Exp. Ther., 1998, 284, 644–650.
Thus, the compounds of Examples 7, 44, 46, 72, 89, 106, 120, 130 and 132, for which the ratio of the affinity for the CB1 receptors to that for the CB2 receptors is between 400 and 4 000, are active orally with an ED50 of between 0.2 mg/kg and 20 mg/kg.

T1 sequence (P47936 whole entry): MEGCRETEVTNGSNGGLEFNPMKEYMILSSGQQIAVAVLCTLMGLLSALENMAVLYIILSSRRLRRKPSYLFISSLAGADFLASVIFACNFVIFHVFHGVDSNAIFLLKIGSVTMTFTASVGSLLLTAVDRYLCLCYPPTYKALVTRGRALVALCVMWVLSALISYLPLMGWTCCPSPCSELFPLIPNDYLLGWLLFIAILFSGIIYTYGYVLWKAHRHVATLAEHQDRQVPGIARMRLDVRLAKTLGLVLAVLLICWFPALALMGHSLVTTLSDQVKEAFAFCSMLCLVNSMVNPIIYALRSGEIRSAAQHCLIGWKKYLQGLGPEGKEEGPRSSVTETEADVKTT

SMILES: Cc1c(C(=O)c2cccc(Cl)c2Cl)c2cccc(Br)c2n1CCCS(C)(=O)=O [Example 7, (7-Bromo-2-methyl-1-(3-(methylsulphonyl)propyl)-1H-indol-3-yl)(2,3-dichlorophenyl)methanone]
- ED50: 0.2 to 20 mg/kg

SMILES: Cc1c(C(=O)c2cccc(C(F)(F)F)c2F)c2ccc(Cl)c(Cl)c2n1CCCNS(C)(=O)=O [Example 72, N-(3-(6,7-Dichloro-3-[2-fluoro-3-(trifluoromethyl)benzoyl]-2-methyl-1H-indol-1-yl)propyl)methanesulphonamide]
- ED50: 0.2 to 20 mg/kg
